Measurements: patent publication US6592899B2, “PLA/PLGA oligomers combined with block copolymers for enhancing solubility of a drug in water” (Macromed Incorporated, priority 2001, dated 2003)
Converted amounts (≈) assume the structure as drawn.

Assays:
[1] = Amphotericin B solubility in triblock copolymer solution with or without PLA oligomers (dialysis preparation); assay type: physicochemical
Procedure: The mixture was added to dialysis tubing with a 3500 Dalton molecular weight cutoff and dialyzed against reverse osmosis deionized water (pH=2) overnight. The dialysate was then exchanged for reverse osmosis deionized water and dialyzed overnight. The reported solubility of amphotericin B in water is 3 μg/mL. […] The maximum concentration of amphotericin B in the mixture of PLA oligomers and the triblock copolymer was improved greater then 10 fold than that in the triblock copolymer alone.

[2] = cited from earlier work
[3] = Solution stability of paclitaxel in PLGA-PEG-PLGA triblock copolymer with or without PLA oligomer; assay type: physicochemical; conditions: 40 mg paclitaxel, 2 ml water, 0.2 μm filtered
From the text: The solution stability enhancing properties of PLA oligomers are illustrated in this example. […] The solution was then filtered through a 0.2 μm filter. […] A precipitate appeared within 1 day with the PLGA-PEG-PLGA triblock copolymer system alone, while the solution containing the PLA oligomer maintained paclitaxel in solution and remained clear for more than 3 days.

[4] = Solution stability of paclitaxel in Me-PEG-PLGA diblock copolymer with or without PLA oligomer; assay type: physicochemical; conditions: 40 mg paclitaxel, 2 mL water
Procedure: The PLA oligomers prepared in Example 4 (75 mg) were added to 600 mg of Me-PEG-PLGA diblock copolymer prepared in Example 9, 40 mg of paclitaxel, and 2 mL of reverse osmosis deionized water. […] The solution was then filtered through a 0.2 μm filter. […] Precipitate began to appear within 1 day from the Me-PEG-PLGA diblock copolymer system alone, while the solution containing the PLA oligomer maintained paclitaxel in solution and remained clear for more than 2 days.

SMILES | improvement of maximum concentration over the triblock copolymer alone ([1]; mixture of PLA oligomers and the triblock copolymer) | solubility ([1]; triblock copolymer solution of Example 1 (entry 1), without PLA oligomers) | reported solubility in water [2] | time paclitaxel maintained in solution and remained clear ([3]; PLGA-PEG-PLGA triblock copolymer (600 mg) with PLA oligomer (75 mg)) | time until a precipitate appeared ([3]; PLGA-PEG-PLGA triblock copolymer system alone (600 mg)) | time paclitaxel maintained in solution and remained clear ([4]; Me-PEG-PLGA diblock copolymer (600 mg) with PLA oligomer (75 mg)) | time until precipitate began to appear ([4]; Me-PEG-PLGA diblock copolymer system alone (600 mg))
C[C@@H]1[C@H](O)[C@@H](C)/C=C/C=C/C=C/C=C/C=C/C=C/C=C/[C@H](O[C@@H]2O[C@H](C)[C@@H](O)[C@H](N)[C@@H]2O)C[C@@H]2O[C@](O)(C[C@@H](O)C[C@@H](O)[C@H](O)CC[C@@H](O)C[C@@H](O)CC(=O)O[C@H]1C)C[C@H](O)[C@H]2C(=O)O [amphotericin B] | > 10 fold | 150 µg/mL (≈ 162 µM) | 3 µg/mL | – | – | – | –
CC(=O)O[C@H]1C(=O)[C@@]2(C)[C@H]([C@H](OC(=O)c3ccccc3)[C@]3(O)C[C@H](OC(=O)[C@H](O)[C@@H](NC(=O)c4ccccc4)c4ccccc4)C(C)=C1C3(C)C)[C@]1(OC(C)=O)CO[C@@H]1C[C@@H]2O [paclitaxel] | – | – | – | more than 3 days | ≤ 1 days | more than 2 days | ≤ 1 days
